Here are results for 71 molecules from PubChem BioAssay AID463229 (Broad Institute, 2010).

Several values for one entry are separate records, joined by “and”; a condition that tells them apart may be missing. Equal values may be shown once. Activity calls are given as the source filed them.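 Rule for the calls: active = compounds raising the signal whose fitted half-maximal concentration is at or below their top tested dose (cut at about 25 µM in these data); inconclusive = flat fit at 30 to 70% activity, or a poor fit; inactive = the rest.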

This experiment has as its system INS-1E rat beta cells, no cytokines, CellTiter-Glo ATP, 48 h. As to the kind of experiment: ATP level change in INS-1E without cytokines, dose response, counter-screen for beta-cell apoptosis protection project, INS-1E rat cells, ATP luminescence, cherry pick (AID 463229). A general note: Counterscreens check selectivity or assay interference.
Broadly, the AC50 is the midpoint of the concentration-response curve, whichever way the signal moves. Turning to `O=C(Nc1cccc(C(F)(F)F)c1)Nc1ccc(N2CCCC2)c(S(=O)(=O)Nc2ccccc2Cl)c1`, the AC50 is 4.27 µM.

Take `NC1=NC[C@H](Cc2ccc(O)cc2)N1CCCCC1CCCCC1`: the AC50 was 2.34 µM.

On to `C#CC[N+](C)(C)CCCCCCCCCCCC`, for which the AC50 was 6.1 µM.

Turning to `CCCC(C)C(=O)Nc1nc(C)c(-c2csc(Nc3ccc(Cl)cc3)n2)s1` (stereo unspecified), the AC50 is 3.71 µM.

For the molecule `COc1ccc(-c2csc(NC(=O)C3CCN(c4ncnc5sc(C)c(C)c45)CC3)n2)cc1OC`, the AC50 was 4.88 µM.

In the case of `CCCC(=O)NC(c1cccs1)c1cc(Cl)c2cccnc2c1O` (stereo unspecified), the half-maximal activity concentration (AC50) is 5.67 µM.

`Cc1ccc2c(c1)S/C(=C/c1ccc[n+](C)c1)N2CCO`: the concentration at half-maximal activity (AC50) was 3.24 µM.

Take `Cc1cc(/C=N/n2cnnc2)c(C)n1-c1ccc(OCc2ccc(Cl)cc2)cc1`: the AC50 is 1.26 µM.

Consider `CCCCCCCCCn1c2c(c(=N)c3c1CCC3)CCC2`, for which the AC50 was < 0.195 µM.

Take `Cn1cc(C(=O)N/N=C/c2c(O)ccc3ccccc23)ccc1=O`: the AC50 was 2.5 µM.

As for `C=CCSc1nc2ccccc2n1C(=O)/C=C/c1ccc(OC)c(OC)c1`, the AC50 was 11 µM.

On to `CCCC[n+]1ccn(C2=C([O-])c3ccccc3C(=O)/C2=N\S(=O)(=O)c2ccc(Cl)cc2)c1`, for which the AC50 was 15.8 µM.

Consider `C/C(=N\NC(=O)Cc1ccc(Cl)cc1)c1ccccn1`, for which the half-maximal activity concentration (AC50) was 4.89 µM.

Turning to `c1ccc(CCNc2ncnc3ccccc23)cc1`, the AC50 was 1.71 µM.

For `O=C(NC(Nc1nc2ccc([N+](=O)[O-])cc2s1)(C(F)(F)F)C(F)(F)F)c1ccccc1`, the AC50 was 0.367 µM.

Turning to `COc1ccc(NCc2nnc(SCC(=O)Nc3nc(-c4ccccc4)cs3)n2-c2ccccc2)cc1`, the AC50 is 7 µM.

`COc1ccc(NS(=O)(=O)c2ccc(-c3cnc(C4CC4)o3)cc2)cc1OC`: the AC50 was 6.58 µM.

Consider `CC1CCC(C(C)C)C(OC(=O)Cn2c(-c3ccc(Br)cc3)[n+](C)c3ccccc32)C1` (stereo unspecified), for which the AC50 was 3.86 µM and 4.4 µM.

With `O=C(Nc1ccc(N2CCN(C(=O)c3ccc(Cl)cc3)CC2)cc1)c1cccnc1`, the AC50 is 18.7 µM.

With `Cc1ccccc1C(=O)N1CCN(c2ccc(NC(=O)c3cccnc3)cc2)CC1`, the AC50 was 11.7 µM.

For `CC(C)Oc1ccc(S(=O)(=O)N2CCCCC2)cc1NC(=O)CN1CCCC1c1cccs1` (stereo unspecified), the AC50 is 6.59 µM.

`Cc1ccc(Nc2c(-c3ccccn3)nc3cccc(C)n23)cc1`: the AC50 is 6.47 µM.

Regarding `Oc1ccc(Nc2nc(N3CCCC3)c3ccccc3n2)cc1`, the concentration at half-maximal activity (AC50) was 18.9 µM.

For `CCCC(=O)NC(c1ccc(C)cc1)c1ccc2cccnc2c1O` (stereo unspecified), the half-maximal activity concentration (AC50) was 1.99 µM.

As for `N#Cc1ccc(-c2csc(NNC(=O)c3ccc(Br)cc3)n2)cc1`, the AC50 is 15.6 µM.

Regarding `O=C(NNC(=S)Nc1ccc(Cl)c(Cl)c1)c1ccccn1`, the AC50 is 4.35 µM.

As to `c1ccc(Nc2nc(NCc3ccco3)c3ccccc3n2)cc1`, the concentration at half-maximal activity (AC50) is 8.02 µM.

For the molecule `CCCCCn1c(=O)c(C(=O)NCc2ccccc2Cl)c(O)c2ccccc21`, the AC50 was 6.84 µM.

With `C/C(=N\NC(=O)c1cc(Br)ccc1O)c1ccccn1`, the AC50 is 7.82 µM.

For `CC(C)C[C@H]1CN=C(Nc2ccccc2)N1CCc1ccc(F)cc1`, the AC50 is > 26 µM (inactive).

With `Oc1[nH]c2ccc(Br)cc2c1N=NC(=S)N1CCOCC1`, the AC50 is 2.39 µM.

Turning to `COc1cc(SC#N)ccc1N=Cc1c(C)[nH]n(-c2ccc(C)c(C)c2)c1=O`, the AC50 was 5.85 µM.

`CN(C)CCCNc1c2ccccc2nc2ccccc12`: the AC50 is 16.2 µM.

Turning to `FC(F)(F)c1cnc(NNC(=S)Nc2ccccc2Cl)c(Cl)c1`, the AC50 was 7.03 µM.

For `O=C(Nc1ccc(OC(F)F)cc1)Nc1cccc(C(F)(F)F)c1`, the AC50 was 7.65 µM.

Consider `CC1CN(CC(O)COC(c2ccc(Cl)cc2)c2ccc(Cl)cc2)CC(C)O1` (stereo unspecified), for which the AC50 was 14.2 µM.

In the case of `COc1ccc2cc3[n+](cc2c1OC)CCc1cc2c(cc1-3)OCO2`, the AC50 is 5.44 µM.

Take `C/C(=N\NC(=O)c1cc(-c2cccs2)nc2ccccc12)c1ccccn1`: the half-maximal activity concentration (AC50) is 1.92 µM.

For the molecule `CC[N+](C)(CC)CCC(c1ccccc1)C1CCCCC1` (stereo unspecified), the AC50 is > 26 µM (inactive).

As to `COc1ccccc1OCCCCOc1ccccc1C(C)=O`, the AC50 is 23 µM.

For the molecule `N#Cc1c(Cl)nsc1NC(=O)c1ccccc1`, the AC50 is 8.12 µM.

For `COc1ccc(CNCCC(c2ccc(OC(C)C)cc2)c2ccccc2OC)cc1` (stereo unspecified), the AC50 is 12.2 µM.

In the case of `CCCCCCCCCn1ccc(=N)cc1`, the AC50 is 0.553 µM.

`NC1=C(Br)C(=O)c2ccccc2C1=O`: the half-maximal activity concentration (AC50) is 18.2 µM.

As to `CC1=NN(c2ccc(C)c(C)c2)C(=O)/C1=C\C=C\c1ccc([N+](=O)[O-])o1`, the AC50 was 7.6 µM.

On to `CC1CCC(C(C)C)C(OC(=O)C[n+]2cc(-c3ccc(Cl)cc3)n3c2CCCCC3)C1` (stereo unspecified), for which the AC50 is 7.32 µM.

As to `O=C(Nc1nc(-c2ccccn2)cs1)c1ccc([N+](=O)[O-])o1`, the AC50 is 6.03 µM.

On to `CC[C@H]1CN2CCc3cc(OC)c(OC)cc3[C@@H]2C[C@@H]1C[C@H]1NCCc2cc(OC)c(OC)cc21`, for which the AC50 is 9.67 µM.

On to `COc1cc(/C=C2\CC/C(=C\c3cc(OC)c(O)c(OC)c3)C2=O)cc(OC)c1O`, for which the concentration at half-maximal activity (AC50) is 4.29 µM.

In the case of `O=C(Nc1cccc(NC(=O)c2ccccc2Cl)c1)c1ccc([N+](=O)[O-])o1`, the AC50 is 7.58 µM.

On to `CSc1nc(-c2ccccc2)nc(C(Cl)Cl)n1`, for which the AC50 was 3.88 µM.

In the case of `Cc1ccc(/C=N/NC(=O)Cc2ccc(Cl)cc2)c(O)c1`, the AC50 was 12.3 µM.

Regarding `CCCCCCCC[n+]1cccc2c3ccccc3ccc21`, the AC50 was 0.273 µM.

Take `COc1ccc(-c2c[n+]3c4n2CCCCC4=C(c2ccc(Br)cc2)C3)cc1`: the AC50 is 3.14 µM.

As for `C[N+]1=C(/C=C/Nc2ccccc2Cl)C(C)(C)c2ccccc21`, the AC50 is 12.2 µM.

In the case of `CCCC(=O)NC(c1ccc(Cl)cc1)c1ccc2cccnc2c1O` (stereo unspecified), the AC50 is 2.08 µM.

Regarding `Cc1nnsc1C(=O)N/N=C/c1ccc2ccccc2c1O`, the AC50 is 1.81 µM.

Take `CCC1=NN(C(=O)c2cccc(Br)c2)C(O)(c2ccc(Br)cc2)C1` (stereo unspecified): the AC50 is 9.79 µM.

On to `CN1/C(=C\C(=S)Nc2ccccc2)C(C)(C)c2ccccc21`, for which the AC50 was 10.1 µM.

Take `Cc1onc(-c2ccccc2)c1C(=O)NC(=S)NNC(=O)c1ccc(O)cc1O`: the AC50 was 0.657 µM.

In the case of `c1ccc(-c2nc(N3CCCCCC3)c3ccccc3n2)nc1`, the AC50 was 6.8 µM.

Consider `CCCCCc1cc(=O)oc2c(C(CCN3CCCCC3)c3ccc4c(c3)OCO4)c(OC)cc(OC)c12` (stereo unspecified), for which the AC50 is 7.89 µM.

`O=C(N/N=C/c1sc2ccccc2c1O)c1cccc2ccccc12`: the AC50 was 4.8 µM.

For the molecule `CCOC(=O)C(=CNc1ccc(C(O)(C(=O)OCC)C(F)(F)F)cc1C)C(=O)OCC` (stereo unspecified), the AC50 was 5.26 µM.

With `CC(=O)NC(c1cccs1)c1cc(F)c2cccnc2c1O` (stereo unspecified), the AC50 was 6.05 µM.

`CCOC(=O)CS(=O)(=O)c1nc(-c2ccccc2)cc(C(F)(F)F)n1`: the AC50 was 8.1 µM.

As for `OCCNc1nc(Nc2ccc(Cl)c(Cl)c2)nc2ccccc12`, the AC50 is 14.3 µM.

`O=C(C(Cl)Cl)N1c2ccccc2OCC1c1ccccc1` (stereo unspecified): the AC50 is 8.31 µM.

Take `CCc1ccc(OC)c(S(=O)(=O)Nc2ccc(Cc3ccncc3)cc2)c1`: the AC50 was 6.36 µM.

For the molecule `Cc1cc(C)nc(SCC(=O)Nc2ccnc3ccccc23)n1`, the AC50 is 7.55 µM.

As to `CC(C)c1ccc(COc2ccc(C(=O)N3CCOCC3)cc2)cc1`, the AC50 was 12.9 µM.
